Laboratory results published in PubChem BioAssay AID328 (DTP/NCI, 2004).
Where “and” joins values, the source holds several entries; their conditions need not be identical. Equal entries are not always repeated. Inconclusive results and toxic doses are left out.

System: BDF1 mice, P388 leukemia ip, median survival T/C
Assay: NCI In Vivo Anticancer Drug Screen. Data for tumor model P388 Leukemia (intraperitoneal) in B6D2F1 (BDF1) mice
Conditions: endpoint: median survival time, higher = longer survival
Summary of the method: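 Each value expresses how treatment altered survival: treated-mouse outcome over vehicle-mouse outcome, both groups bearing the transplanted tumour.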

[1] = dose: 100.0 mg/kg/injection, schedule: Q01DX009 (ip), vehicle: saline with Tween-80
[2] = dose: 100.0 mg/kg/injection, schedule: Q04DX003 (ip), vehicle: saline with Tween-80
[3] = dose: 200.0 mg/kg/injection, schedule: Q01DX009 (ip), vehicle: saline with Tween-80
[4] = dose: 200.0 mg/kg/injection, schedule: Q04DX003 (ip), vehicle: saline with Tween-80
[5] = dose: 400.0 mg/kg/injection, schedule: Q01DX009 (ip), vehicle: saline with Tween-80
[6] = dose: 400.0 mg/kg/injection, schedule: Q04DX003 (ip), vehicle: saline with Tween-80
[7] = dose: 12.5 mg/kg/injection, schedule: Q04DX003 (ip), vehicle: saline
[8] = dose: 50.0 mg/kg/injection, schedule: Q04DX003 (ip), vehicle: saline
[9] = dose: 100.0 mg/kg/injection, schedule: Q04DX003 (ip), vehicle: saline
[10] = dose: 25.0 mg/kg/injection, schedule: Q01DX009 (ip), vehicle: saline
[11] = dose: 50.0 mg/kg/injection, schedule: Q01DX009 (ip), vehicle: saline
[12] = dose: 25.0 mg/kg/injection, schedule: Q01DX009 (ip), vehicle: saline with Tween-80
[13] = dose: 50.0 mg/kg/injection, schedule: Q01DX009 (ip), vehicle: saline with Tween-80
[14] = dose: 100.0 mg/kg/injection, schedule: Q01DX009 (ip), vehicle: saline

Structure (SMILES): c1ccc2c3c(ccc2c1)Sc1ccc2ccccc2c1N3
- T/C [1]: 90 % of control
- T/C [2]: 104 % of control
- T/C [3]: 90 % of control
- T/C [4]: 90 % of control
- T/C [5]: 90 % of control
- T/C [6]: 90 % of control

Structure (SMILES): O=c1[nH]c(-c2ccccc2)c(-c2ccccc2)[nH]1
- T/C (dose: 12.5 mg/kg/injection, schedule: Q01DX009 (ip), vehicle: Klucel (hydroxypropylcellulose) (HPC)): 95 % of control
- T/C (dose: 25.0 mg/kg/injection, schedule: Q01DX009 (ip), vehicle: Klucel (hydroxypropylcellulose) (HPC)): 86 % of control
- T/C (dose: 50.0 mg/kg/injection, schedule: Q01DX009 (ip), vehicle: Klucel (hydroxypropylcellulose) (HPC)): 86 % of control

Structure (SMILES): O=C(c1ccccc1)C(c1ccccc1)C(O)(C(F)(F)F)C(F)(F)F (stereo not drawn)
- T/C (dose: 100.0 mg/kg/injection, schedule: Q01DX001 (ip), vehicle: saline with Tween-80): 100 % of control
- T/C (dose: 200.0 mg/kg/injection, schedule: Q01DX001 (ip), vehicle: saline with Tween-80): 95 % of control

Structure (SMILES): COc1ccc(C(CC(C)=O)c2c(O)c3ccccc3oc2=O)cc1OC (stereo not drawn)
- T/C (dose: 3.12 mg/kg/injection, schedule: Q04DX003 (ip), vehicle: water): 98 % of control
- T/C (dose: 6.25 mg/kg/injection, schedule: Q01DX009 (ip), vehicle: water): 100 % of control
- T/C (dose: 6.25 mg/kg/injection, schedule: Q04DX003 (ip), vehicle: water): 101 % of control
- T/C (dose: 12.5 mg/kg/injection, schedule: Q01DX009 (ip), vehicle: water): 100 % of control
- T/C (dose: 12.5 mg/kg/injection, schedule: Q04DX003 (ip), vehicle: water): 100 % of control
- T/C (dose: 25.0 mg/kg/injection, schedule: Q04DX003 (ip), vehicle: water): 105 % of control
- T/C (dose: 50.0 mg/kg/injection, schedule: Q04DX003 (ip), vehicle: water): 100 % of control
- T/C (dose: 100.0 mg/kg/injection, schedule: Q04DX003 (ip), vehicle: water): 100 % of control and 102 % of control
- T/C (dose: 200.0 mg/kg/injection, schedule: Q04DX003 (ip), vehicle: water): 101 % of control
- T/C (dose: 400.0 mg/kg/injection, schedule: Q04DX003 (ip), vehicle: water): 90 % of control

Structure (SMILES): CC[S+](CC)CC
- T/C [7]: 109 % of control
- T/C (dose: 25.0 mg/kg/injection, schedule: Q01DX001 (ip), vehicle: saline): 100 % of control
- T/C (dose: 25.0 mg/kg/injection, schedule: Q04DX003 (ip), vehicle: saline): 109 % of control
- T/C (dose: 50.0 mg/kg/injection, schedule: Q01DX001 (ip), vehicle: saline): 100 % of control
- T/C [8]: 109 % of control
- T/C (dose: 100.0 mg/kg/injection, schedule: Q01DX001 (ip), vehicle: saline): 100 % of control
- T/C [9]: 100 % of control

Structure (SMILES): CC(=O)CC(C)(C)N
- T/C [10]: 95 % of control
- T/C [11]: 104 % of control

Structure (SMILES): Cc1ccc(/C=C/C(=O)c2ccc(Cl)cc2)cc1
- T/C [1]: 90 % of control
- T/C [2]: 95 % of control
- T/C [3]: 90 % of control
- T/C [4]: 109 % of control
- T/C [5]: 100 % of control
- T/C [6]: 109 % of control

Structure (SMILES): Cc1ccc(S(=O)(=O)N(C)c2ccc(I)c(Cl)c2Cl)cc1
- T/C (dose: 100.0 mg/kg/injection, schedule: Q04DX003 (ip), vehicle: Klucel (hydroxypropylcellulose) (HPC)): 100 % of control
- T/C (dose: 200.0 mg/kg/injection, schedule: Q04DX003 (ip), vehicle: Klucel (hydroxypropylcellulose) (HPC)): 90 % of control
- T/C (dose: 400.0 mg/kg/injection, schedule: Q04DX003 (ip), vehicle: Klucel (hydroxypropylcellulose) (HPC)): 90 % of control

Structure (SMILES): O=[N+]([O-])c1ccc2c(c1)CCCC2
- T/C (dose: 100.0 mg/kg/injection, schedule: Q01DX009 (ip), vehicle: other): 113 % of control
- T/C (dose: 100.0 mg/kg/injection, schedule: Q04DX003 (ip), vehicle: other): 109 % of control
- T/C (dose: 200.0 mg/kg/injection, schedule: Q01DX009 (ip), vehicle: other): 118 % of control
- T/C (dose: 200.0 mg/kg/injection, schedule: Q04DX003 (ip), vehicle: other): 118 % of control
- T/C (dose: 400.0 mg/kg/injection, schedule: Q01DX009 (ip), vehicle: other): 122 % of control
- T/C (dose: 400.0 mg/kg/injection, schedule: Q04DX003 (ip), vehicle: other): 113 % of control

Structure (SMILES): CC(=O)Nc1c(Cl)cc2c(c1Cl)Cc1cc([N+](=O)[O-])ccc1-2
- T/C [1]: 95 % of control
- T/C [2]: 92 % of control and 95 % of control
- T/C [3]: 95 % of control
- T/C [4]: 92 % of control and 95 % of control
- T/C [5]: 100 % of control
- T/C [6]: 91 % of control

Structure (SMILES): Cc1cc(O)c2c(c1)C(=O)C(c1c(C)cc3c(c1O)C(=O)C=CC3=O)=CC2=O
- T/C (dose: 1.25 mg/kg/injection, schedule: Q01DX009 (ip), vehicle: saline): 89 % of control
- T/C (dose: 2.5 mg/kg/injection, schedule: Q01DX009 (ip), vehicle: saline): 114 % of control
- T/C (dose: 5.0 mg/kg/injection, schedule: Q01DX009 (ip), vehicle: saline): 102 % of control
- T/C (dose: 10.0 mg/kg/injection, schedule: Q01DX009 (ip), vehicle: saline): 105 % of control and 116 % of control
- T/C (dose: 14.0 mg/kg/injection, schedule: Q01DX009 (ip), vehicle: saline): 106 % of control
- T/C (dose: 22.0 mg/kg/injection, schedule: Q01DX009 (ip), vehicle: saline): 116 % of control
- T/C (dose: 35.0 mg/kg/injection, schedule: Q01DX009 (ip), vehicle: saline): 99 % of control

Structure (SMILES): C1CSCCSCCCSCCSC1
- T/C [12]: 98 % of control
- T/C [13]: 102 % of control
- T/C [1]: 118 % of control

Structure (SMILES): O=C(CC(O)(C(F)(F)F)C(F)(F)F)c1ccccc1Cl
- T/C [2]: 120 % of control
- T/C [4]: 100 % of control
- T/C [6]: 120 % of control

Structure (SMILES): c1ccc(Nc2n[n+](-c3ccccc3)no2)cc1
- T/C [12]: 105 % of control
- T/C [13]: 101 % of control
- T/C [1]: 101 % of control and 104 % of control
- T/C [2]: 107 % of control
- T/C [3]: 88 % of control
- T/C [4]: 106 % of control
- T/C [6]: 102 % of control

Structure (SMILES): CC[C@@]1(O)C(=O)OCc2c1cc1n(c2=O)Cc2cc3ccccc3nc2-1
- T/C (dose: 0.8 mg/kg/injection, schedule: Q01DX009 (ip), vehicle: saline with Tween-80): 170 % of control
- T/C (dose: 1.5 mg/kg/injection, schedule: Q01DX009 (ip), vehicle: saline with Tween-80): 195 % of control
- T/C (dose: 2.5 mg/kg/injection, schedule: Q04DX003 (ip), vehicle: saline with Tween-80): 161 % of control
- T/C (dose: 3.0 mg/kg/injection, schedule: Q01DX009 (ip), vehicle: saline with Tween-80): 183 % of control
- T/C (dose: 3.75 mg/kg/injection, schedule: Q04DX003 (ip), vehicle: saline with Tween-80): 176 % of control
- T/C (dose: 4.0 mg/kg/injection, schedule: Q04DX003 (ip), vehicle: saline with Tween-80): 200 % of control
- T/C (dose: 6.0 mg/kg/injection, schedule: Q04DX003 (ip), vehicle: saline with Tween-80): 233 % of control
- T/C (dose: 9.0 mg/kg/injection, schedule: Q04DX003 (ip), vehicle: saline with Tween-80): 250 % of control

Structure (SMILES): C[C@]12CCC(=O)C=C1CC[C@@H]1[C@@H]2[C@@H](O)C[C@@]2(C)[C@H]1CC[C@]2(C)O
- T/C [1]: 86 % of control

Structure (SMILES): C[CH2][Ge]([CH2]C)[CH2]C.C[CH2][Ge]([CH2]C)[CH2]C.C[CH2][Ge]([CH2]C)[O][Ge]([CH2]C)[CH2]C
- T/C [13]: 115 % of control and 116 % of control
- T/C [1]: 112 % of control

Structure (SMILES): c1ccc2n[se]nc2c1
- T/C (dose: 1.56 mg/kg/injection, schedule: Q04DX003 (ip), vehicle: saline): 108 % of control
- T/C (dose: 3.13 mg/kg/injection, schedule: Q04DX003 (ip), vehicle: saline): 108 % of control and 109 % of control
- T/C (dose: 6.25 mg/kg/injection, schedule: Q04DX003 (ip), vehicle: saline): 106 % of control and 109 % of control
- T/C [7]: 104 % of control

Structure (SMILES): CCOP(=O)(OCC)OCCCN(CC)CC
- T/C [10]: 118 % of control
- T/C [11]: 114 % of control
- T/C [8]: 100 % of control
- T/C [14]: 100 % of control
- T/C [9]: 107 % of control
- T/C (dose: 200.0 mg/kg/injection, schedule: Q01DX009 (ip), vehicle: saline): 89 % of control
- T/C (dose: 200.0 mg/kg/injection, schedule: Q04DX003 (ip), vehicle: saline): 110 % of control
- T/C (dose: 300.0 mg/kg/injection, schedule: Q04DX003 (ip), vehicle: saline): 105 % of control

Structure (SMILES): COC(=O)C1SCc2ccccc2C1=O (stereo not drawn)
- T/C [2]: 104 % of control
- T/C [4]: 105 % of control
- T/C [6]: 105 % of control

Structure (SMILES): O=c1oc2ccc(O)cc2c2ccccc12
- T/C (dose: 50.0 mg/kg/injection, schedule: Q04DX003 (ip), vehicle: saline sonified): 95 % of control
- T/C (dose: 100.0 mg/kg/injection, schedule: Q04DX003 (ip), vehicle: saline sonified): 100 % of control
- T/C (dose: 200.0 mg/kg/injection, schedule: Q04DX003 (ip), vehicle: saline sonified): 104 % of control

Structure (SMILES): C=C1C(=O)OC2CC3(C)CC(O)C(O)C(=C)C3CC12 (stereo not drawn)
- T/C [10]: 104 % of control
- T/C [11]: 104 % of control
- T/C [14]: 104 % of control
